The values that follow come from article PMC5708526, “Targeting secondary protein complexes in drug discovery: studying the druggability and chemical biology of the HSP70/BAG1 complex” (Chemical Communications (Cambridge, England), 2017).

The structures appear in SMILES notation.

By Kd is commonly meant the concentration at which binding is half-saturated. A word on the pKD: it is the negative decadic logarithm of the KD, by convention in mol/L.

The target of one experiment is T1, TR-HSP72 (aa 3-382) (Homo sapiens, UniProt P0DMV8).
T1 construct: Truncated HSP72-NBD (residues 3 to 382); made in house
The experiment in a line: Fluorescence polarisation probe KD determination with truncated HSP72. The format is binding. How it is done: To determine the binding affinity of bisaryl FP-probe 11 for HSP72, increasing concentrations of the protein were titrated against a fixed concentration (10 nM) of the FP-probe. […] We speculated that this decrease in apparent KD was due to the slow hydrolysis of the ATP-probe to ADP-ATTO-488 + Pi. Although HSP72 has low intrinsic ATPase activity,[8] the high enzyme concentration could catalyse hydrolysis over the time-frame of the assay, with the initial KD values reflective of the known modest affinity of ATP for HSP70, whilst the final KD value was consistent with the higher affinity ADP ligand.[14] […]
(§1) TRIS Tris(hydroxymethyl)aminomethane
(§2) General Information: Unless otherwise stated the aqueous assay buffer contained 50 mM TRIS base pH 7.4, 150 mM NaCl, 6 mM MgCl2, 1 mM DTT, 0.1% (wt/wt) CHAPS. The assay was conducted using 384 Plus F ProxiPlates (PerkinElmer) with a final assay volume of 10 μL. Plates were centrifuged at 1000 rpm for 1 minute prior to incubation and read using an 2103 Envision Multilable Plate Reader. Excitation and emission wavelengths used for green probes were 480 nm and 535 nm, respectively.
Fluorescence polarisation was measured in units of millipolarization (mP). […] Data were plotted and analysed using GraphPad Prism 6, graphical data represents the mean ± standard error of the mean for a single representative experiment. […]
Background: In fluorescence polarisation assays a small probe gives low polarisation when free and higher when bound to something large.

For the next experiment, the target named is T2, HSP72 (Homo sapiens, UniProt P0DMV8).
T2 construct: made in house
The experiment in a line: FP assay binding window and Z' determination.
Text: As a result, the assay was not statistically robust, so could not be used in competition experiments (Z′ = 0.36).[11],[20],[21] We hypothesised that the high lipophilicity of 10 (clog P = 6.9) was causing the small binding window, either due to aggregation, even at very low concentrations, or its large hydrate volume.[22] Because the lipophilicity of the specific-ligand portion of the probe was fixed by the need for high affinity to the HSP70 target, we focused on changes to the solvent exposed fluorophore. ATTO-488, a green-shifted fluorophore that contains two sulfonic acid groups, was selected as an alternative to fluorescein (see ESI ^†), as this reduced the clog P of the bisaryl probe 11 to –3.9.[21] The binding window of ATTO-488 bisaryl FP-probe 11 measured at a fixed and apparently saturating concentration of HSP72 (5 μM), was now greater than 150 mP (Z′ = 0.63, Fig. 3A and Fig. S1, ESI ^†). […]
as §1, §2
Fluorescence polarisation was measured in units of millipolarization (mP). All experiments were performed in triplicate, unless otherwise stated. Data were plotted and analysed using GraphPad Prism 6, graphical data represents the mean ± standard error of the mean for a single representative experiment. ATP-derived fluorescent probes (1.0 mM in aqueous) were purchased from Jena Bioscience. Human BAG-1M (10.9 μM in 20 mM TRIS base pH 7.4, 100 mM NaCl, 1 mM DTT, 1% (v/v) glycerol) was purchased from Enzo Life Sciences.
Determination of optimal probe concentration: To each well, 5 μL of HSP72 (10 µM in assay buffer) or 5 μL assay buffer and increasing concentrations of probe (5 μL, two-fold dilution series) were added. Fluorescence polarisation values for the tracer ± protein were plotted using GraphPad prism 6. […]
Z’ determination: To each well, 5 µL of probe (20 nM in assay buffer) and either 5 µL of HSP70 (in assay buffer) or 5 µL of assay buffer were added. Fluorescent polarisation values from 96 wells were used to calculate the mean and standard deviation for each data set. Z’-factors were calculated using the equation given below (sample refers to probe in the absence of protein and control refers to probe in the presence of protein). […]

T1 sequence (P0DMV8 3-382): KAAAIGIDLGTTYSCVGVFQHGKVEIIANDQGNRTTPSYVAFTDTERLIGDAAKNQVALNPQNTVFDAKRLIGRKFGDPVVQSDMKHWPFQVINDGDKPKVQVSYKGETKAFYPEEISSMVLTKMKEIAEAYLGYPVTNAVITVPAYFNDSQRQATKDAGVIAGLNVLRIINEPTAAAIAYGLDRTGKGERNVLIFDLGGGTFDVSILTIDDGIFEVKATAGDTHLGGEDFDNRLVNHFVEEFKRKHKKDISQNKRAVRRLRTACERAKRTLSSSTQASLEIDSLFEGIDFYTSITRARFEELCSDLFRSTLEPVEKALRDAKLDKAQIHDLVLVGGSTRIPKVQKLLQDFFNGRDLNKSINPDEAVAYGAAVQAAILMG
T2 sequence (P0DMV8 whole entry): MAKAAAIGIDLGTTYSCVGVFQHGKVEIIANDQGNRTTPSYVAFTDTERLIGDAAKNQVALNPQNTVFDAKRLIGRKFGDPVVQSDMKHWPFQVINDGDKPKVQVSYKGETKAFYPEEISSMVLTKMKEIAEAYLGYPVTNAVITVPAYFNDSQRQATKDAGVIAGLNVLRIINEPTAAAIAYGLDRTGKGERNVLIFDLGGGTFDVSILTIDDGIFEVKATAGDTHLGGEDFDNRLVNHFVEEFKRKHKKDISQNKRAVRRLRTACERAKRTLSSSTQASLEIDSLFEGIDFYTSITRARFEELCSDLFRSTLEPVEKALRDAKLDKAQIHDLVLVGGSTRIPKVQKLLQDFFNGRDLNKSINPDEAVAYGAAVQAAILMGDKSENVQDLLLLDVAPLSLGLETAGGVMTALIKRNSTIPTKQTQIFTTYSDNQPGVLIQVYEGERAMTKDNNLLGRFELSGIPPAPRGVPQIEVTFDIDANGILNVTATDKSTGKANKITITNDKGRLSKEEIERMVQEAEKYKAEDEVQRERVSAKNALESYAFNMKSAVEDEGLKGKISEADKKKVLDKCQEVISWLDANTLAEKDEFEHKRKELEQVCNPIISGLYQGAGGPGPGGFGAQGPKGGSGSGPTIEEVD

Take `CN(CCCC(=O)NCCCCCCNc1ncnc2c1nc(NCc1ccc3ncccc3c1)n2[C@@H]1O[C@H](COCc2ccc(C(F)(F)F)cc2)[C@@H](O)[C@H]1O)C(=O)c1ccccc1-c1c2ccc(=N)c(S(=O)(=O)O)c-2oc2c(S(=O)(=O)O)c(N)ccc12` [compound 11]: at TR-HSP72 (aa 3-382), the dissociation constant (Kd) was found to be 0.05 µM and the pKD is recorded as 7.32. The “Z'” value on HSP72 (FP assay with HSP72) is reported as 0.63. The “assay (binding) window” value at HSP72 (presence vs absence of 5 μM HSP72) is “greater than 150 mP”.
